Where a name gives a salt, the structure may show the parent alone. Read-outs that look alike come from different tables or passages of the source.
Tests used:
[1] = Solubility, hygroscopicity and stability; assay type: physicochemical
[2] = test system: acetylcholinesterase; test: Time course inactivation of acetylcholinesterase; assay type: biochemical
Description: The synthetic preparation of the hydrochloride salt of the tertiary amine inhibitors involves only slight modifications of the general method.

[3] = target: acetylcholinesterase; test: Ellman assay for acetylcholinesterase inhibition (enzyme source not given); assay type: biochemical; conditions: enzyme source not stated
Description: (§1) Ortho-, meta-, and p-chloromethylphenyl choline carbonates are all examples of inhibitors of acetylcholinesterase in accordance with the present invention. Employing the Ellman assay for acetylcholinesterase inhibition [G. L. Ellman, K. D. Courtney, V. Andrews, Jr., and R. M. Featherstone, Biochem. Pharmacol., vol.

[4] = cited from earlier work
[5] = target: acetylcholinesterase (Electrophorus electricus, UniProt O42275); test: Ellman assay for acetylcholinesterase inhibition, IC50 (eel-derived enzyme); assay type: biochemical, electric eel
Description: as §1
From such competitive inhibitor measurements it was possible to determine an IC50 (proportionate amount necessary to reduce acetylcholinesterase activity by 50%) for various inhibitors [meaning those containing the CH2 X group] in this patent. All IC50 values fell between 8 and 200 uM. The exact value varied with the source of the acetylcholinesterase and quantitative measurements were performed on electric eel and human erythrocyte enzyme. Values reported below are with eel-derived enzyme. [drawing 5] where

[6] = target: acetylcholinesterase; test: Inhibition and inactivation kinetics of acetylcholinesterase, substrate protection; assay type: biochemical; conditions: for Protection against inactivation by substrate acetylcholine: equimolar concentrations of acetylcholine and inhibitor (10 μM each), pre-incubation state
Description: as §1
p-Chloromethylphenyl choline carbonate iodide salt is an example of an inhibitor of acetylcholinesterase in accordance with the present invention.

Sequence of acetylcholinesterase (Electrophorus electricus, UniProt O42275) (O42275 24-633): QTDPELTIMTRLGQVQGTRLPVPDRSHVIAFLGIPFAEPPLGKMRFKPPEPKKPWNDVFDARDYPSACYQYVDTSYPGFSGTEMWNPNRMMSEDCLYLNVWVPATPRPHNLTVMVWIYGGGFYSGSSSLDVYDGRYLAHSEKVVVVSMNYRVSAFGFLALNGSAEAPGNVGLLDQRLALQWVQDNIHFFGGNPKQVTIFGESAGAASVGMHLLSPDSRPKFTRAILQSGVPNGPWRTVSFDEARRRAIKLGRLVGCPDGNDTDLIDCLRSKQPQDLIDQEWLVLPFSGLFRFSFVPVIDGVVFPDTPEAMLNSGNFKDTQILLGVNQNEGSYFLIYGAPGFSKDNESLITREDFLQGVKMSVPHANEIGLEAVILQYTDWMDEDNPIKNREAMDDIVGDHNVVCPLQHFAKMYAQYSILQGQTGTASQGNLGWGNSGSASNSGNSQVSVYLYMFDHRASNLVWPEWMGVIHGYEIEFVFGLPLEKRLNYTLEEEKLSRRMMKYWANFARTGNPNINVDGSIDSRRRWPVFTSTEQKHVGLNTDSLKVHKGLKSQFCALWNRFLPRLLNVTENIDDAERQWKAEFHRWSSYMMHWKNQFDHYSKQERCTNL

## CN(C)CCOC(=O)Oc1ccc(CCl)cc1
[1]
  Water solubility: water- soluble
[2]; compared with p-chloromethylphenyl choline carbonate
  Time course inactivation relative to p-chloromethylphenyl choline carbonate: time course inactivation similar to that for the p-chloromethylphenyl choline carbonate
[2]; deduced from time course data
  Potency relative to the quaternary compound: as potent as the quaternary compound
[2]; first 15 minutes at 40 uM concentration
  Inactivation of acetylcholinesterase: 88%

## CC(C)(C)CCOC(=O)Oc1ccc(CCl)cc1 [3,3-dimethylbutyl p-chloromethylphenyl carbonate]
[3]
  IC50: 8 µM

## CCOP(=O)(OCC)OP(=O)(OCC)OP(=O)(OCC)OP(=O)(OCC)OCC (stereo not shown) [hexaethyltetraphosphate]
[4]
  Solubility in petroleum ethers and kerosene: general insolubility
  Solubility in water (known inhibitors): somewhat soluble in water

## C[N+](C)(C)CCOC(=O)Oc1cccc(CCl)c1 [meta-CH2 Cl]
[5]
  IC50: 150 µM

## C[N+](C)(C)CCOC(=O)Oc1ccccc1CCl [ortho-CH2 Cl]
[5]
  IC50: 100 µM

## C[N+](C)(C)CCOC(=O)Oc1ccc(CCl)cc1 [p-chloromethyl phenyl choline carbonate iodide salt]
[6]; 25° C., pH=8 phosphate buffer
  Ki: 32 µM
  Km: 144 µM
[6]; below inhibitor concentrations of 40 μM
  Inactivation mode / kinetics: time-dependent manner with pseudo first order kinetics
[6]
  Protection against inactivation by substrate acetylcholine: offers partial protection against inactivation
[6]; listed as p-chloromethyl derivative
  Protection against inactivation by substrate acetylcholine: offers protection against inactivation
[1]; solid iodide salt
  Hygroscopicity: very hygroscopic
[5]; eel-derived enzyme, Ellman assay, read-out: IC50 (proportionate amount necessary to reduce acetylcholinesterase activity by 50%)
  IC50: 40 µM

Reference: patent US5082964A, “Selective acetylcholinesterase inhibitors and methods of making and using same” (priority 1986, dated 1992)
